# Experiments:
# [1] = tested on: Mycobacterium tuberculosis; experiment: Antitubercular activity against Mycobacterium tuberculosis H37Rv after 5 days by microplate Alamar blue assay; format: functional; settings: for MIC: Mycobacterium tuberculosis, H37Rv, 120 h
# [2] = tested on: Mycobacterium tuberculosis; experiment: Antitubercular activity against Mycobacterium tuberculosis after 5 days by microplate Alamar blue assay; format: functional; settings: 120 h
smiles,measurement,setting,value
O=C(O)c1cn(C2CC2)c2cc(N3CCNCC3)c(F)cc2c1=O [CIPROFLOXACIN],MIC,[1],3.12 µg/mL
O=c1cc(Cn2cc(COc3ccc(OCc4cn(Cc5cc(=O)oc6c5ccc5ccccc56)nn4)cc3)nn2)c2ccc3ccccc3c2o1,-logMIC,[1],4.93
same,MIC,[1],12.5 µg/mL
COc1ccc2c(Cn3cc(COc4ccc(OCc5cn(Cc6cc(=O)oc7cc(OC)ccc67)nn5)cc4)nn3)cc(=O)oc2c1,-logMIC,[1],5.2
same,MIC,[1],6.25 µg/mL
Cc1ccc2oc(=O)cc(Cn3cc(COc4ccc(Br)cc4)nn3)c2c1,-logMIC,[1],4.3
same,MIC,[1],50 µg/mL
O=c1cc(Cn2cc(COc3ccc(Br)cc3)nn2)c2ccc(Cl)cc2o1,-logMIC,[1],4.3
same,MIC,[1],50 µg/mL
COc1ccc(OCc2cn(Cc3cc(=O)oc4c3ccc3ccccc34)nn2)cc1,-logMIC,[1],4.3
same,MIC,[1],50 µg/mL
COc1ccc(OCc2cn(Cc3cc(=O)oc4ccc(OC)cc34)nn2)cc1,-logMIC,[1],4.3
same,MIC,[1],50 µg/mL
COc1ccc(OCc2cn(Cc3cc(=O)oc4cc(OC)ccc34)nn2)cc1,-logMIC,[1],4.3
same,MIC,[1],50 µg/mL
COc1ccc(OCc2cn(Cc3cc(=O)oc4ccc(C)cc34)nn2)cc1,-logMIC,[1],4.3
same,MIC,[1],50 µg/mL
Cc1ccc2c(Cn3cc(COc4ccc(Cl)cc4)nn3)cc(=O)oc2c1,-logMIC,[1],4.3
same,MIC,[1],50 µg/mL
NC(=O)c1cnccn1 [PYRAZINAMIDE],MIC,[1],3.12 µg/mL
Cc1cc(C)c2c(Cn3cc(COc4ccc(OCc5cn(Cc6cc(=O)oc7cc(C)cc(C)c67)nn5)cc4)nn3)cc(=O)oc2c1,-logMIC,[1],5.2
same,MIC,[1],6.25 µg/mL
COc1ccc(OCc2cn(Cc3cc(=O)oc4ccc5ccccc5c34)nn2)cc1,-logMIC,[1],4.3
same,MIC,[1],50 µg/mL
Cc1ccc2c(Cn3cc(COc4ccc(Br)cc4)nn3)cc(=O)oc2c1,-logMIC,[1],4.3
same,MIC,[1],50 µg/mL
Cc1cc(=O)oc2cc(OCc3cn(Cc4cc(=O)oc5ccc(Cl)cc45)nn3)ccc12,MIC,[2],6.25 µg/mL
Cc1ccc2c(Cn3cc(COc4ccc(OCc5cn(Cc6cc(=O)oc7cc(C)ccc67)nn5)cc4)nn3)cc(=O)oc2c1,-logMIC,[1],5.2
same,MIC,[1],6.25 µg/mL
COc1ccc(OCc2cn(Cc3cc(=O)oc4ccc(Br)cc34)nn2)cc1,-logMIC,[1],4.3
same,MIC,[1],50 µg/mL
O=c1cc(Cn2cc(COc3ccc(Br)cc3)nn2)c2ccc3ccccc3c2o1,-logMIC,[1],4
same,MIC,[1],100 µg/mL
O=c1cc(Cn2cc(COc3ccc(Cl)cc3)nn2)c2c(ccc3ccccc32)o1,-logMIC,[1],4.3
same,MIC,[1],50 µg/mL
COc1ccc(OCc2cn(Cc3cc(=O)oc4cc(Cl)ccc34)nn2)cc1,-logMIC,[1],4.3
same,MIC,[1],50 µg/mL
Cc1ccc2oc(=O)cc(Cn3cc(COc4ccc(OCc5cn(Cc6cc(=O)oc7ccc(C)cc67)nn5)cc4)nn3)c2c1,-logMIC,[1],6.69
same,MIC,[1],0.2 µg/mL
O=c1cc(Cn2cc(COc3ccc(Cl)cc3)nn2)c2cc(Br)ccc2o1,-logMIC,[1],4.3
same,MIC,[1],50 µg/mL
COc1ccc2oc(=O)cc(Cn3cc(COc4ccc(Br)cc4)nn3)c2c1,-logMIC,[1],4.3
same,MIC,[1],50 µg/mL
COc1ccc(OCc2cn(Cc3cc(=O)oc4cc(C)cc(C)c34)nn2)cc1,-logMIC,[1],4.3
same,MIC,[1],50 µg/mL
CN[C@@H]1[C@H](O[C@H]2[C@H](O[C@H]3[C@H](O)[C@@H](O)[C@H](N=C(N)N)[C@@H](O)[C@@H]3N=C(N)N)O[C@@H](C)[C@]2(O)C=O)O[C@@H](CO)[C@H](O)[C@H]1O [STREPTOMYCIN],MIC,[1],6.25 µg/mL
COc1ccc(OCc2cn(Cc3cc(=O)oc4cc(C)ccc34)nn2)cc1,-logMIC,[1],4.3
same,MIC,[1],50 µg/mL
O=c1cc(Cn2cc(COc3ccc(Br)cc3)nn2)c2cc(Br)ccc2o1,-logMIC,[1],4.3
same,MIC,[1],50 µg/mL
Cc1ccc2oc(=O)cc(Cn3cc(COc4ccc(Cl)cc4)nn3)c2c1,-logMIC,[1],4.3
same,MIC,[1],50 µg/mL
O=c1cc(Cn2cc(COc3ccc(Br)cc3)nn2)c2c(ccc3ccccc32)o1,-logMIC,[1],4
same,MIC,[1],50 µg/mL
O=c1cc(Cn2cc(COc3ccc(Cl)cc3)nn2)c2ccc(Cl)cc2o1,-logMIC,[1],4.3
same,MIC,[1],50 µg/mL
Cc1ccc2c(Cn3cc(COc4ccc(OCc5cn(Cc6cc(=O)oc7c(C)c(C)ccc67)nn5)cc4)nn3)cc(=O)oc2c1C,-logMIC,[1],5.5
same,MIC,[1],3.12 µg/mL
